Values after ≈ are worked out from the molar mass of the structure shown.

One may read the solubility as the concentration that dissolves in the medium under given conditions. The low end stands for a poorly soluble substance, the high end for a readily soluble substance.

The nature of the series: Water solubility of racecadotril. It counts as physicochemical. The conditions noted are these: room temperature conditions.

`CC(=O)SCC(Cc1ccccc1)C(=O)NCC(=O)OCc1ccccc1` (racemic) [Racecadotril, (RS)-benzyl N-[3-(acetylthio)-2-benzylpropanoyl]glycinate] registered a solubility of about 10 µg/mL (≈ 25.9 µM).
